Patent publication EP4458830A1, “TRICYCLIC COMPOUND, METHOD FOR PREPARING SAME, AND USE THEREOF” (Sichuan Kelun-Biotech Biopharmaceutical Co., Ltd., priority 2021, dated 2023)

How the values were obtained:
human TLR7 = target: T1, human TLR7 (Homo sapiens, UniProt Q9NYK1); assay: Agonistic activity of compounds on HEK-Blue hTLR7 cells (QUANTI-Blue reporter, OD620); format: cell-based; details: for EC50 / Emax: HEK-Blue hTLR7 cells; for EC50: 20 h incubation; for Emax: OD620 at which the activation effect reached the maximum; for activation effect on human TLR7: summary in words
T1 construct: host or cells: HEK-Blue hTLR7 cells (HEK293-derived reporter line; that the line is stably transfected with the human TLR7 gene is own knowledge of the vendor's product)
T1 sequence (Q9NYK1 27-1049): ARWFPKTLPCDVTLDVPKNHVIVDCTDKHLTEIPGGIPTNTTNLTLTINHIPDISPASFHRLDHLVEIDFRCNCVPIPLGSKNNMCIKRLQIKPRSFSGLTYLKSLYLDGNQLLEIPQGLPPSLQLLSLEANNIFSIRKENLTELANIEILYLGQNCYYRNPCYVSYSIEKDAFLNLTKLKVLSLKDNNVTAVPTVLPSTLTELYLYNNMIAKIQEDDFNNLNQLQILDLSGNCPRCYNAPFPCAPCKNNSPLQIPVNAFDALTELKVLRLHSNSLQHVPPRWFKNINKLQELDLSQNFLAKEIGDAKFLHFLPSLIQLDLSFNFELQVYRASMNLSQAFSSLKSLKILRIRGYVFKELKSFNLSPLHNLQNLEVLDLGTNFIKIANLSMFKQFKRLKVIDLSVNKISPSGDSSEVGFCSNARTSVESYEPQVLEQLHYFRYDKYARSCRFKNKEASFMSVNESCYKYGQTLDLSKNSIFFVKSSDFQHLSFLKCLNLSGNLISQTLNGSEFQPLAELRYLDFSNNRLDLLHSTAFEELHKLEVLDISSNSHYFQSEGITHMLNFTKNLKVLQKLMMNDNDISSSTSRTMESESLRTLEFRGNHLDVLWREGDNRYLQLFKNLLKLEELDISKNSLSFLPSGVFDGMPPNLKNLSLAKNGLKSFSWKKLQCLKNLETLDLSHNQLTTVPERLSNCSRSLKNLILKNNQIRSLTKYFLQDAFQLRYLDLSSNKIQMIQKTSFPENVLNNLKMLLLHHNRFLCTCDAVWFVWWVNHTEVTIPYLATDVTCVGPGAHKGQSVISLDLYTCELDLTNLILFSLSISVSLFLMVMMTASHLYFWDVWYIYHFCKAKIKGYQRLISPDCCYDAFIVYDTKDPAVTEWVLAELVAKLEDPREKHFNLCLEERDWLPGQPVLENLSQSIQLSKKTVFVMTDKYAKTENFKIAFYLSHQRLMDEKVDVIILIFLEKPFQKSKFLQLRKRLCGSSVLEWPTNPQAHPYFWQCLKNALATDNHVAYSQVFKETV
Description: • 1. HEK-Blue hTLR7 cells (Invivogen) were cultured in DMEM medium (Hyclone) containing 10% FBS heat-inactivated fetal bovine serum (Corning). On the day of detection, the cell state was observed under a microscope, the cells were collected and resuspended, and the cell concentration was adjusted after counting, 50 µL per well, the total amount of cells was 2×10^4, and the cells were inoculated in a 96-well plate. • 2. After the cells adhered to the wall overnight, 50 µL of the test compound at different concentrations was added into the well plate, so that the final concentrations were 100 µM, 33.3 µM, 11.11 µM, 3.70 µM, 1.23 µM, 0.41 µM, 0.14 µM, 0.05 µM, 0 µM, and the final concentration of DMSO was 1%. The compound was incubated with the cells in a 37°C, 5% CO2 incubator for 20 h. • 3. After the incubation, observation under microscope was performed to determine the maximum signal well, the states of the cells with the highest and lowest concentrations of the compound, and whether the compound will crystalize at high concentration. 10 µL of cell culture supernatant was taken and transferred to a new 96-well transparent plate, 90 µL of QUANTI-Blue (Invivogen) detection reagent was added to each well, and incubated at 37°C for 3 h, and OD620 was read with a multifunctional microplate reader (BMG LABTECH). • 4. EC50 was calculated by fitting with Graphpad Prism software log(agonist) vs. response - Variable slope, and Emax was the OD620 at which the activation effect of the test compound reached the maximum.

human TLR8 = target: T2, human TLR8 (Homo sapiens, UniProt Q9NR97); assay: Agonistic activity of compounds on HEK-Blue hTLR8 cells (QUANTI-Blue reporter, OD620); format: cell-based; details: for EC50 / Emax: HEK-Blue hTLR8 cells; for EC50: 20 hours incubation; for Emax: OD620 at which the activation effect reached the maximum; for activation effect on human TLR8: summary in words
T2 construct: host or cells: HEK-Blue hTLR8 cells (HEK293-derived reporter line; that the line is stably transfected with the human TLR8 gene is own knowledge of the vendor's product)
T2 sequence (Q9NR97 27-1041): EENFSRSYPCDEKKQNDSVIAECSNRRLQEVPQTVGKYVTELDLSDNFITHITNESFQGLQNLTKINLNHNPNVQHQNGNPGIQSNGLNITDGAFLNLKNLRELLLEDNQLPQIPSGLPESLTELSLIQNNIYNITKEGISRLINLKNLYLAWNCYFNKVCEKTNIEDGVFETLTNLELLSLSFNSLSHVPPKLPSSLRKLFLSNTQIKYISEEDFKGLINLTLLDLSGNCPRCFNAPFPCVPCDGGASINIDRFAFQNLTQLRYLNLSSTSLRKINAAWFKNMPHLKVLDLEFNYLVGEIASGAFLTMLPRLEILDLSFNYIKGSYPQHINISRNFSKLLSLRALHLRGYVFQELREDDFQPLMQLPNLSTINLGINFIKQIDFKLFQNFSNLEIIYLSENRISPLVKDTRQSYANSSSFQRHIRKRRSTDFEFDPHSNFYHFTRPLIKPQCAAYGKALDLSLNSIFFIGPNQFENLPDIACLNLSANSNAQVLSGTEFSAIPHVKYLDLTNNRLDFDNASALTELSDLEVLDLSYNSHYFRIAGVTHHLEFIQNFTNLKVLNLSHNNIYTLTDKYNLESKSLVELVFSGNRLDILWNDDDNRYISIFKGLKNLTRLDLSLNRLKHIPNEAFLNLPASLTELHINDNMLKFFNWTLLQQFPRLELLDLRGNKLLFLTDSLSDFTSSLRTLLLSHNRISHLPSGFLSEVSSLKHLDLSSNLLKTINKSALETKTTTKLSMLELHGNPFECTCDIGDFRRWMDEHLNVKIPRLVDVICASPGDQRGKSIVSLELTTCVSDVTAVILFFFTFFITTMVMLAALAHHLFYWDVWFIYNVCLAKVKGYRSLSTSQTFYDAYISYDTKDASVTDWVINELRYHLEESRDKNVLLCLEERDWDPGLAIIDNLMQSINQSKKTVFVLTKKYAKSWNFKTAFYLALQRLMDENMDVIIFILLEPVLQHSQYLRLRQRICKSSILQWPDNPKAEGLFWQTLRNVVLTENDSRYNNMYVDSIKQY
Description: • 1. HEK-Blue hTLR8 cells (Invivogen) were cultured in DMEM medium (Hyclone) containing 10% FBS heat-inactivated fetal bovine serum (Corning). On the day of detection, the cell state was observed under a microscope, the cells were collected and resuspended, and the cell concentration was adjusted after counting, 50 µL per well, the total amount of cells was 2×10^4, and the cells were inoculated in a 96-well plate. • 2. After the cells adhered to the wall overnight, 50 µL of the test compound at different concentrations was added to the well plate, so that the final concentrations were 100 µM, 25 µM, 6.25 µM, 1.56 µM, 0.39 µM, 0.10 µM, 0.02 µM, 0.006 µM, 0 µM, or 100 µM, 33.3 µM, 11.11 µM, 3.70 µM, 1.23 µM, 0.41 µM, 0.14 µM, 0.05 µM, 0 µM, and the final concentration of DMSO was 1%. The compound was incubated with the cells in a 37°C, 5% CO2 incubator for 20 hours. • 3. After the incubation, observation was performed under microscope to determine the maximum signal well, the state of the cells with the highest and lowest concentrations of the compound, and whether the compound will crystalize at high concentration. 10 µL of cell culture supernatant was transferred to a new 96-well transparent plate, added with 90 µL of QUANTI-Blue (Invivogen) detection reagent to each well, incubated at 37°C for 3 hours, and OD620 was read with a multifunctional microplate reader (BMG LABTECH). • 4. EC50 was calculated by fitting with Graphpad Prism software log(agonist) vs. Response - Variable slope, and Emax was the OD620 at which the activation effect of the test compound reached the maximum.

| EC50 (human TLR7) | Emax (human TLR7) | activation effect on human TLR7 (human TLR7) | EC50 (human TLR8) | Emax (human TLR8) | activation effect on human TLR8 (human TLR8) | Compound |
| --- | --- | --- | --- | --- | --- | --- |
| 0.22 µM | 1.36 OD620 | strong activation effect | 5.83 µM | 1.43 OD620 | strong activation effect | CCCCc1nc2c(N)nc3cc(C)sc3c2n1CCCCN [Compound 1, 1-(4-aminobutyl)-2-butyl-7-methyl-1H-imidazo[4,5-d]thieno[3,2-b]pyridine-4-amine] |
| 0.28 µM | 1.36 OD620 | strong activation effect | 8.83 µM | 1.37 OD620 | strong activation effect | CCCCc1nc2c(N)nc3ccsc3c2n1CCCCN [Compound 2, 1-(4-aminobutyl)-2-butyl-1H-imidazo[4,5-d]thieno[3,2-b]pyridine-4-amine] |
| 0.47 µM | 1.43 OD620 | strong activation effect | 19.4 µM | 1.86 OD620 | strong activation effect | CCCCc1nc2c(N)nc3cc(C)sc3c2n1CC1CCNCC1 [Compound 3, 2-butyl-7-methyl-1-(piperidin-4-ylmethyl)-1H-imidazo[4,5-d]thieno[3,2-b]pyridine-4-amine] |
| 0.44 µM | 1.08 OD620 | strong activation effect | 15.3 µM | 1.11 OD620 | strong activation effect | CCCCc1nc2c(N)nc3cc(C4CCN(C)CC4)sc3c2[nH]1 [Compound 6, 2-butyl-7-(1-methylpiperidin-4-yl)-1H-imidazo[4,5-d] thieno[3,2-b]pyridine-4-amine] |
| 0.27 µM | 1.59 OD620 | strong activation effect | 11.9 µM | 0.84 OD620 | strong activation effect | CCCCc1nc2c(N)nc3ccsc3c2n1CC1CCN(C)CC1 [Compound 27, 2-butyl-1-[(1-methylhexahydropyridin-4-yl)methyl] thieno[3,2-b]imidazo[4,5-d]pyridine-4-amine] |
| 0.03 µM | 1.46 OD620 | strong activation effect | 18.9 µM | 0.67 OD620 | strong activation effect | CCCCc1nc2c(N)nc3cc(C4CCNCC4)sc3c2n1CC1CCOCC1 [Compound 33, 2-butyl-7-(hexahydropyridin-4-yl)-1-(3,4,5,6-tetrahydro-2H-pyran-4-ylmethyl)thieno[3,2-b]imidazo[4,5-d]pyridine-4-amine] |
